Laboratory results reported in patent publication US4977138A, “FR901228 substance and preparation thereof” (Fujisawa Pharmaceutical Co., Ltd., priority 1988, dated 1990).
Values after ≈ are worked out from the molar mass of the structure shown.

Experiments:
Aspergillus niger = experiment: Antimicrobial activity, agar dilution method in Sabouraud medium; format: cell-based; conditions: 48 hours incubation at 25° C.
Protocol: (§1) Antimicrobial activity of FR901228 was performed by an agar dilution method in Sabouraud medium.
(§2) Minimum inhibitory concentration (MIC) is expressed in terms of μg/ml after 48 hours incubation at 25° C.

Shizosaccharomyces pombe = experiment: as above; format: cell-based; conditions: 48 hours incubation at 25° C.
Protocol: as §1, §2

[1] = system: Aureobasidium pullulans IFO 4466; experiment: as above; format: cell-based; conditions: 48 hours incubation at 25° C.
Protocol: as §1, §2

SW480 (colon cancer) = experiment: Inhibition of human tumor cell growth in vitro (MTT cytotoxicity test); format: cell-based; conditions: four days
Protocol: (§3) The cytotoxicity test was performed in microtiter plates, with each well containing 3×10^3 tumor cells in 100 μl Dulbecco's minimum essential medium supplemented with 10% fetal calf serum, penicillin (50 units/ml) and streptomycin (50 μg/ml). The cells were incubated at 37° C. for four days and the colorimetric MTT [3-(4,5-dimethylthiazol-2-yl)-2,5-diphenyl tetrazolium bromide, made by Sigma] assay was performed according to the method described by Mosmann (J. Immunol. Methods, 65, 55-63, 1983). MTT was dissolved in phosphate buffer solution (PBS) at 5 mg/ml and filtered to sterilize and remove a small amount of insoluble residue. After the culture of human tumor cells was terminated, this MTT solution (10 μl per 100 μl medium) was added to all wells of an assay, and plates were further incubated at 37° C. for 4 hours. Acid-isopropanol (100 μl of 0.04N HCl in isopropanol) was added to all wells and mixed thoroughly to dissolve the dark blue crystals. After all crystals were dissolved, the plates were read on a 2-wavelength microplate photometer (Model MTP-22; Corona Electric Co., Ltd., Katsuta, Japan) at 550 nm, a reference wavelength of 660 nm. The object compound of this invention was dissolved in methanol and diluted in Dulbecco's minimum essential medium and added to the culture to give final concentration of 1 μg/ml or less.

A549 (lung cancer) = experiment: as above; format: cell-based; conditions: four days
Protocol: as §3

MCF-7 (breast cancer) = experiment: as above; format: cell-based; conditions: four days
Protocol: as §3

P388 murine leukemia = experiment: Antitumor activity against P388 murine leukemia; format: in vivo, BDFl mice; conditions: for Mean Survival Time: once daily for four days from 24 hours after inoculation, BDFl mice; for Time (%) (T/C % of mean survival time): 100× treated group/control group
Protocol: Antitumor activity of FR901228 substance was determined in murine tumor system. P388 leukemia cells […] were implanted intraperitoneally into BDFl mice (female, 8 weeks old). Twenty-four hours after the inoculation of tumor cells, FR901228 substance was administered intraperitoneally to mice. Administrations of FR901228 substance were continued intraperitoneally once daily for another three days. FR901228 substance was suspended in 0.9% saline. Control mice received intraperitoneal doses of 0.9% saline.
Antitumor activity was expressed as the mean survival time of group and also expressed as the T/C % (100× treated group/control group) of mean survival time.

[2] = Solubility of FR901228 substance in solvents; format: physicochemical
[3] = 0.32 mg/kg/day intraperitoneally
[4] = 1.0 mg/kg/day intraperitoneally

## C/C=C1\NC(=O)[C@H]2CSSCC/C=C/[C@H](CC(=O)N[C@H](C(C)C)C(=O)N2)OC(=O)[C@H](C(C)C)NC1=O [FR901228 substance]
Aspergillus niger
  MIC: 100 µg/mL (≈ 185 µM)
Shizosaccharomyces pombe
  MIC: 10 µg/mL (≈ 18.5 µM)
[1]
  MIC: 10 µg/mL (≈ 18.5 µM)
SW480 (colon cancer)
  IC50: 0.00057 µg/mL (≈ 0.00105 µM)
A549 (lung cancer)
  IC50: 0.00082 µg/mL (≈ 0.00152 µM)
MCF-7 (breast cancer)
  IC50: 0.00099 µg/mL (≈ 0.00183 µM)
P388 murine leukemia; [3]
  Mean Survival Time: 14.25 days
  Time (%) (T/C % of mean survival time): 158.3%
P388 murine leukemia; [4]
  Mean Survival Time: 15.25 days
  Time (%) (T/C % of mean survival time): 169.4%
[2]; chloroform
  Solubility: soluble
[2]; ethanol
  Solubility: sparingly soluble
[2]; ethyl acetate
  Solubility: soluble
[2]; hexane
  Solubility: insoluble
[2]; methanol
  Solubility: sparingly soluble
[2]; water
  Solubility: insoluble
